Experiments:
Plasmopara viticola = Plasmopara viticola (downy mildew of grapevine), grapevine leaf disk assay, preventive; format: in vivo; conditions: foliar, 168 h, 200 ppm, grapevine leaf disks, assessed seven days after inoculation, read-out: control of fungal infection, Plasmopara viticola
Phytophthora infestans = assay: whole plant or invertebrate; format: in vivo; conditions: in Solanum lycopersicum, foliar, 96 h, read-out: control of fungal infection, Phytophthora infestans
[1] = test system: Erysiphe graminis f.sp. tritici; assay: Erysiphe graminis f.sp. tritici (wheat powdery mildew), wheat leaf segment assay, preventive; format: in vivo; conditions: Blumeria graminis, foliar, 96 h; 200 ppm; wheat leaf segments; assessed four days after inoculation; read-out: control of fungal infection, Etysiphe graminis f.sp. tritici
Botrytis cinerea = Botrytis cinerea (grey mould), bean leaf disk assay, preventive; format: in vivo; conditions: foliar, 96 h, 200 ppm, bean leaf disks, assessed four days after inoculation, read-out: control of fungal infection, Botrytis cinerea
Septoria nodorum = Septoria nodorum (wheat glume blotch), wheat leaf segment assay, preventive; format: in vivo; conditions: Parastagonospora nodorum, foliar, 96 h; 200 ppm; wheat leaf segments; assessed four days after inoculation; read-out: control of fungal infection, Septoria nodorum
Septoria tritici = Septoria tritici (leaf blotch), liquid culture growth inhibition in nutrient broth; format: cell-based; conditions: Zymoseptoria tritici; 200 ppm; PDB broth, 24 C; inhibition of growth determined photometrically after 72 hrs; read-out: control of fungal infection, Septoria tritici
Pythium ultimum = Pythium ultimum (Damping off), liquid culture growth inhibition in potato dextrose broth; format: cell-based; conditions: Globisporangium ultimum; 20 ppm; potato dextrose broth, 24° C.; inhibition of growth determined photometrically after 48 hours; read-out: control of fungal infection, Pythium ultimum
Fusarium culmorum = Fusarium culmorum (root rot), liquid culture growth inhibition in nutrient broth; format: cell-based; conditions: PDB broth, 24 C, inhibition of growth determined photometrically after 48 hrs, read-out: control of fungal infection, Fusarium culmorum
Method in brief: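 Fusarium culmorum conidia from cryogenic storage were mixed into potato dextrose broth and added to compound pre-dispensed from DMSO (diluted in 0.025% Tween20). Incubated at 24 C in the dark; growth inhibition read photometrically after 48 hrs.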

[2] = test system: Puccinia recondita f.sp. tritici; assay: Puccinia recondita f.sp. tritici (wheat brown rust), wheat leaf segment assay, preventive; format: in vivo; conditions: foliar, 216 h, 200 ppm, wheat leaf segments, assessed nine days after inoculation, read-out: control of fungal infection, Puccinia recondite f.sp. tritici

SMILES | pest or weed control at 200 ppm (Plasmopara viticola) | pest or weed control at 200 ppm (Phytophthora infestans) | pest or weed control at 200 ppm [1] | pest or weed control at 200 ppm (Botrytis cinerea) | pest or weed control at 200 ppm (Septoria nodorum) | inhibition of growth at 200 ppm (Septoria tritici) | inhibition of growth at 20 ppm (Pythium ultimum) | melting point | inhibition of growth at 200 ppm (Fusarium culmorum) | pest or weed control at 200 ppm [2]
CON=CC(C)(C#N)NC(=O)C(Oc1ccc2ncc(C#C[Si](C)(C)C)cc2c1)SC (stereo not shown) [Compound No. 58, N-(1-Cyano-2-methoxyimino-1-methyl-ethyl)-2-methylsulfanyl-2-(3-trimethylsilanylethynyl-quinolin-6-yloxy)-acetamide] | ≥ 60% | ≥ 60% | ≥ 60% | ≥ 60% | ≥ 60% | ≥ 60% | ≥ 60% | 69 to 75 °C | – | –
CON=CC(C)(C#N)NC(=O)C(Oc1cc(C)c2ncc(Br)cc2c1)SC (stereo not shown) [Compound No. 54, 2-(3-Bromo-8-methyl-quinolin-6-yloxy)-N-(1-cyano-2-methoxyimino-1-methyl-ethyl)-2-methylsulfanyl-acetamide] | ≥ 60% | ≥ 60% | ≥ 60% | – | – | ≥ 60% | ≥ 60% | 156 to 159 °C | ≥ 60% | –
C#Cc1cnc2c(C)cc(OC(OC)C(=O)NC(C)(C)C=NOC)cc2c1 (stereo not shown) [Compound No. 77, 2-(3-Ethynyl-8-methyl-quinolin-6-yloxy)-2-methoxy-N-(2-methoxyimino-1,1-dimethyl-ethyl)-acetamide] | ≥ 60% | ≥ 60% | ≥ 60% | – | ≥ 60% | ≥ 60% | ≥ 60% | 138 to 140 °C | ≥ 60% | ≥ 60%
CON=CC(C)(C)NC(=O)C(Oc1cc(C)c2ncncc2c1)SC (stereo not shown) [Compound No. 91, N-(2-Methoxyimino-1,1-dimethyl-ethyl)-2-(8-methyl-quinazolin-6-yloxy)-2-methylsulfanyl-acetamide] | ≥ 60% | ≥ 60% | – | ≥ 60% | – | – | ≥ 60% | 109 to 112 °C | – | –
CON=CC(C)(C)NC(=O)C(Oc1ccc2ocnc2c1)SC (stereo not shown) [Compound No. 88, 2-(benzooxazol-5-yloxy)-N-(2-methoxyimino-1,1-dimethyl-ethyl)-2-methylsulfanyl-acetamide] | – | – | – | – | – | – | ≥ 60% | 95 to 96 °C | – | –
CON=CC(C)(C)NC(=O)C(OC)Oc1cc(C)c2ncc(I)cc2c1 (stereo not shown) [Compound No. 73, 2-(3-Iodo-8-methyl-quinolin-6-yloxy)-2-methoxy-N-(2-methoxyimino-1,1-dimethyl-ethyl)-acetamide] | ≥ 60% | – | ≥ 60% | ≥ 60% | ≥ 60% | ≥ 60% | ≥ 60% | 126 to 128 °C | ≥ 60% | ≥ 60%
C#Cc1cnc2ccc(OC(SC)C(=O)NC(C)(C)CC=NOC)cc2c1 (stereo not shown) [Compound No. 95, 2-(3-Ethynyl-quinolin-6-yloxy)-N-(3-methoxyimino-1,1-dimethyl-propyl)-2-methylsulfanyl-acetamide] | ≥ 60% | ≥ 60% | ≥ 60% | ≥ 60% | ≥ 60% | ≥ 60% | ≥ 60% | – | ≥ 60% | ≥ 60%
CON=CC(C)(C#N)NC(=O)C(Oc1cc(C)c2ncc(I)cc2c1)SC (stereo not shown) [Compound No. 55, N-(1-Cyano-2-methoxyimino-1-methyl-ethyl)-2-(3-iodo-8-methyl-quinolin-6-yloxy)-2-methylsulfanyl-acetamide] | ≥ 60% | ≥ 60% | ≥ 60% | ≥ 60% | ≥ 60% | – | ≥ 60% | 166 to 168 °C | ≥ 60% | ≥ 60%
CCC(Oc1ccc2ncc(Br)cc2c1)C(=O)NC(C)(C#N)C=NOC (stereo not shown) [Compound No. 60, 2-(3-Bromo-quinolin-6-yloxy)-N-(1-cyano-2-methoxyimino-1-methyl-ethyl)-butyramide] | – | ≥ 60% | – | ≥ 60% | – | ≥ 60% | ≥ 60% | 152 to 155 °C | – | –
CON=CC(C)(C)NC(=O)C(OC)Oc1cc(C)c2ncc(Br)cc2c1 (stereo not shown) [Compound No. 71, 2-(3-Bromo-8-methyl-quinolin-6-yloxy)-2-methoxy-N-(2-methoxyimino-1,1-dimethyl-ethyl)-acetamide] | ≥ 60% | – | ≥ 60% | ≥ 60% | – | ≥ 60% | – | 130 to 132 °C | ≥ 60% | –
CON=CC(C)(C)NC(=O)C(Oc1cc(Cl)c2ccsc2c1)SC (stereo not shown) [Compound No. 81, 2-(4-Chloro-benzo[b]thiophen-6-yloxy)-N-(2-methoxyimino-1,1-dimethyl-ethyl)-2-methylsulfanyl-acetamide] | ≥ 60% | – | – | ≥ 60% | – | ≥ 60% | – | 120 to 122 °C | – | –
CON=CC(C)(C)NC(=O)C(Oc1cc(Cl)c2ncc(Cl)cc2c1)SC (stereo not shown) [Compound No. 90, 2-(3,8-Dichloro-quinolin-6-yloxy)-N-(2-methoxyimino-1,1-dimethyl-ethyl)-2-methylsulfanyl-acetamide] | ≥ 60% | – | ≥ 60% | ≥ 60% | – | ≥ 60% | ≥ 60% | 158 to 161 °C | – | –
CON=CC(C)(C#N)NC(=O)C(Oc1ccc2ncc(I)cc2c1)SC (stereo not shown) [Compound No. 57, N-(1-Cyano-2-methoxyimino-1-methyl-ethyl)-2-(3-iodo-quinolin-6-yloxy)-2-methylsulfanyl-acetamide] | ≥ 60% | ≥ 60% | ≥ 60% | – | ≥ 60% | ≥ 60% | ≥ 60% | 59 to 64 °C | ≥ 60% | ≥ 60%
C#Cc1cnc2ccc(OC(SC)C(=O)NC(C)(C=NOC)COC)cc2c1 (stereo not shown) [Compound No. 65, 2-(3-Ethynyl-quinolin-6-yloxy)-N-(2-methoxyimino-1-methoxymethyl-1-methyl-ethyl)-2-methylsulfanyl-acetamide] | ≥ 60% | ≥ 60% | ≥ 60% | ≥ 60% | ≥ 60% | ≥ 60% | ≥ 60% | – | ≥ 60% | ≥ 60%
C#Cc1cnc2ccc(OC(CC)C(=O)NC(C)(C#N)C=NOC)cc2c1 (stereo not shown) [Compound No. 61, N-(1-Cyano-2-methoxyimino-1-methyl-ethyl)-2-(3-ethynyl-quinolin-6-yloxy)-butyramide] | ≥ 60% | ≥ 60% | ≥ 60% | ≥ 60% | ≥ 60% | ≥ 60% | ≥ 60% | – | ≥ 60% | ≥ 60%
C#Cc1cnc2ccc(OC(SC)C(=O)NC(C)(C#C)C=NOC)cc2c1 (stereo not shown) [Compound No. 69, 2-(3-Ethynyl-quinolin-6-yloxy)-N-[1-(methoxyimino-methyl)-1-methyl-prop-2-ynyl]-2-methylsulfanyl-acetamide] | ≥ 60% | ≥ 60% | ≥ 60% | ≥ 60% | ≥ 60% | ≥ 60% | ≥ 60% | – | ≥ 60% | ≥ 60%
C#Cc1cnc2c(C)cc(OC(SC)C(=O)NC(C)(C#N)C=NOC)cc2c1 (stereo not shown) [Compound No. 56, N-(1-Cyano-2-methoxyimino-1-methyl-ethyl)-2-(3-ethynyl-8-methyl-quinolin-6-yloxy)-2-methylsulfanyl-acetamide] | ≥ 60% | ≥ 60% | ≥ 60% | ≥ 60% | ≥ 60% | ≥ 60% | ≥ 60% | 172 to 174 °C | – | ≥ 60%

Source: patent publication US8507509B2, “Saturated and insaturated bi- or tricyclic aryloxyacetamine derivatives and their use as fungicides” (Syngenta Crop Protection LLC, priority 2007, dated 2013)
